Data from paper PMC12454639, “Direct disassembly of α-syn preformed fibrils into α-syn monomers by an all-D-peptide” (NPJ Parkinson's Disease, 2025).
Square brackets hold non-standard residues; d marks the D form. Peptide text beside a SMILES is read from it.

Test system: small α-syn PFF seeds
Assay: AFM analysis of small α-syn PFF seeds
Type: biochemical
Conditions: 400 and 1600 nM SVD-1a, 3 days at 37 °C, PBS pH 7.4
Procedure: Fig. 4 SVD-1a disassembles small α-syn PFF seeds into α-syn monomers. Small α-syn PFF seeds were prepared as described previously. […] A and B Time-dependent DLS measurements with 200 nM small α-syn PFF seeds in the absence (A) and presence (B) of 500 nM SVD-1a. 1 ml sample was continuously measured in a sealed quartz cuvette at 37 °C under quiescent conditions every 60 s for 72 h in a SpectroSize 300 instrument (XtalConcepts, GE). Data are shown as a radius plot where the signal amplitude of each particle size is represented by the data point diameter. C One-phase exponential decay fit of “200 nM PFF + 500 nM SVD-1a” shown in (B). […] PFF and monomer samples that were incubated without SVD-1a served as controls. α-Syn was detected with the antibody Syn211. […] In the upper part of the blot, above the marker range, PFFs were detected, using a longer exposure time due to a weaker signal (see Supplementary Fig. 11 for the whole blot image with different exposure times). F Size-based fractionation by centrifugal concentration followed by ELISA quantification. […] After incubation, the samples were fractioned using a 100 kDa MWCO centrifugal concentrator (Merck, Microcon DNA Fast Flow 100 MWCO). α-Syn content of flow through (red) and retentate (blue) was quantified using an α-syn specific ELISA (BioLegend, Human α-Synuclein (Colorimetric), 448607). […]

## CC[C@@H](C)[C@@H](NC(=O)[C@@H](Cc1c[nH]cn1)NC(=O)[C@@H](CCC(=O)O)NC(=O)[C@@H](CCC(N)=O)NC(=O)[C@@H](Cc1c[nH]c2ccccc12)NC(=O)[C@@H](Cc1ccc(O)cc1)NC(=O)[C@H](NC(=O)[C@@H](CCC(=O)O)NC(=O)[C@@H](Cc1c[nH]cn1)NC(=O)[C@H](NC(=O)[C@H]1CCCN1C(=O)[C@@H](CC(C)C)NC(=O)[C@H](N)CCCNC(=N)N)[C@H](C)O)[C@H](C)O)C(=O)N[C@H](Cc1c[nH]c2ccccc12)C(=O)N[C@H](Cc1c[nH]cn1)C(=O)N[C@H](C)C(=O)N[C@H](CCCNC(=N)N)C(=O)N[C@H](CCCNC(=N)N)C(=O)N[C@H](CCCNC(=N)N)C(=O)N[C@H](CCCNC(=N)N)C(=O)N[C@H](CCCNC(=N)N)C(N)=O [SVD-1a] (H-[dR][dL][dP][dT][dH][dE][dT][dY][dW][dQ][dE][dH][dI][dW][dH][dA][dR][dR][dR][dR][dR]-NH2)
  small α-syn PFF particle number: decrease in small α-syn PFF particle number
